Measurements taken from US6399100B1, “Controlled release pharmaceutical compositions containing tiagabine” (Elan Corporation, plc, priority 1997, dated 2002).

Tests used:
[1] = Aqueous solubility of raw material
Text: The tiagabine employed in the following examples is the monohydrate crystalline form for the hydrochloride salt of the R isomer.

[2] = four hours after ingestion, deliberate overdose; cited from earlier work
[3] = cited from earlier work

Compound | aqueous solubility [1] | Plasma levels [2] [ng/mL] | plasma level relative to typical steady state therapeutic dosing levels [2] [times] | half-life ([3]; in humans) [h] | elimination half-life ([3]; lowered by enzyme inducers) [h]
Cc1ccsc1C(=CCCN1CCCC(C(=O)O)C1)c1sccc1C.Cl (centres unmarked) [tiagabine hydrochloride monohydrate, N-(4,4-di(3-methylthien-2-yl)but-3-enyl) nipecotic acid hydrochloride] | high |  |  |  | 
Cc1ccsc1C(=CCCN1CCCC(C(=O)O)C1)c1sccc1C (centres unmarked) [tiagabine, N-(4,4-di(3-methylthien-2-yl)but-3-enyl) nipecotic acid] |  | 3100 | 30 | 5 to 8 | 2 to 3
